The values that follow come from patent publication US10718028B2, “Fluorescent probes for abasic site detection” (CASE WESTERN RESERVE UIVERSITY, priority 2015, dated 2020).

The target of one data set is T1, UDG (Escherichia coli, UniProt P12295).
T1 construct: purchased New England BioLabs
Put plainly: SSB activity assay UDG inhibition. The data set is classed as biochemical. The note with it: UDG 10 min pretreatment vs simultaneous UDG and Cy7MX. The procedure:
FIG. 8 illustrates the evaluation of UDG inhibition by Cy7MX. Time course represents incubation time of U:A DNA before APE addition with UDG alone, 10 minutes UDG pretreatment then Cy7MX, and UDG and Cy7MX without pretreatment.
Method UDG (10 min)+Cy7MX: All samples were prepared in triplicate.
Method UDG+Cy7MX: All samples were prepared in triplicate. […] Samples were incubated at 37° C. in the dark for 2 min, 10 min, 30 min, 60 min, or 180 min.
Method UDG: As in method UDG+Cy7MX except substitute DMSO (2 μL) for Cy7MX.
Likewise, the potential of Cy7MX to inhibit UDG, either through direct interaction with the enzyme or by binding to DNA and blocking the uracil substrate, was tested. To accomplish this, U:A DNA was incubated with UDG for a fixed time prior to addition of Cy7MX (FIG. 8, UDG (10 min)+Cy7MX). In this case, Cy7MX could not interfere with the activity of UDG.

Data set [1] can be described thus: Stability of Cy7MX and Cy7MX-treated samples. Type of data set: physicochemical.
Another data set concerns DLD1 WT cells. The data set is described as follows: MMS treatment, isolation, and Cy7MX analysis of DLD1 DNA. The data set is classed as cell-based. The conditions noted are these: 3 h MMS exposure, 1 h Cy7MX. The procedure:
DLD1 shControl (WT) cells at a density of 3 million cells per dish were plated in Falcon brand 100×20 mm cell culture dishes in 10 mL medium (DMEM supplemented with 10% heat inactivated FBS, penicillin/streptomycin, and nonessential amino acids) and incubated 16 h at 37° C. and 5% CO2 to ensure adhesion. Solutions of MMS were prepared in serum free DMEM medium at concentrations of 0.05, 0.25, 1, 4, and 10 mM. Medium was removed from the cells and replaced with the MMS or a serum free medium vehicle. Three plates were prepared per treatment group. Cells were incubated at 37° C. and 5% CO2 with continuous MMS exposure for 3 h. At the time points, cells were collected and DNA isolated as described above (Treatment of DLD1 cells with FUDR).
Pure DNA pellets were suspended in 190 μL water. A solution of Cy7MX (10 μL, final=25 μM) was added to each sample, keeping the stock solution and all treated samples vigorously in the dark until the final analysis. Samples were incubated with Cy7MX for 1 h at 37° C. in the dark. After incubation, DNA was purified and analyzed as described above.
Methyl methanesulfonate (MMS) is a methylating agent used to induce AP sites in cells. An MMS dose-response in DLD1 WT cells was performed for a 3 h treatment time. […] Fluorescence was measured following ethanol precipitation purification.

The subject of data set [2] is AP sites in calf thymus DNA. The data set is described as follows: MX and Cy7MX genomic DNA blocking assay. The note with it: not blocked by MX. Type of data set: binding. As for the experimental part: FIG. 10 illustrates fluorescence response and MX blocking of Cy7MX. Calf thymus DNA treated with heat and acid for increments of 15 min to give a linear relative number of AP sites. AP DNA was then pretreated with MX (50 mM, +MX) or NaCl (50 mM, −MX) followed by incubation with Cy7MX (0.05 mM). Fluorescence measures show a linear response to Cy7MX when not blocked by MX.
Calf thymus DNA was purchased from Sigma and was reconstituted overnight at 4° C. in either H2O or 500 mM MX (to eliminate basal AP sites) with gentle shaking (1.5 mL water or solution per 5 mg DNA). For samples reconstituted in MX solution, an ethanol precipitation was performed twice before heat and acid treatment (vide infra) then reconstituted in water. The DNA-water solution was aliquoted to 1.5 mL Eppendorf tubes (360 μL) and 10× Citrate buffer (1M NaCl, 100 μM monosodium phosphate, 100 μM monosodium citrate, pH 5.0) was added to a final concentration of 1×. For t=0 min samples, ice-cold 100% EtOH (1.0 mL) was added immediately and the Eppendorf tubes stored at −20° C. […]
To 80 μL aliquots of DNA was added either 10 μL of MX (500 mM, pH 7) or vehicle control (500 mM NaCl). […] Aliquots (125 μL) of the samples were added to a black, clear-bottom 96 well plate (Corning) and analyzed with 700 nm excitation and 790 nm emission. Fluorescence was adjusted to DNA concentration.

A short description of data set [3]: Absorption and emission spectra of AP site binding probes in ethanol. The data set is classed as physicochemical. As for the experimental part:
NMR spectra were recorded on a Varian Mercury 300 MHz, a Varian Inova 400, and a Varian Inova 600 MHz spectrometer at room temperature, except where otherwise noted. Chemical shifts for 1H NMR were reported as 6, parts per million, and referenced to CHCl3 at 7.26 ppm or TMS at 0 ppm. Chemical shifts for ^13C NMR were reported as 6 and referenced to the center line of the CDCl3 triplet at 77.0 ppm or CH2Cl2 pentet at 54.0 ppm. Low resolution mass spectra were recorded on a ThermoScientific LCQ Advantage or a Finnigan LCQ Deca mass spectrometer. Fluorescence data were collected on a Varian Cary Eclipse fluorescence spectrophotometer in a quartz cuvette with a 1 cm pathlength or on a Tecan Infinite M200 scanner. Absorbance data were collected on a Varian Cary 50 Bio UV-Visible Spectrophotometer in a quartz cuvette with a 1 cm path length.
To characterize the fluorescent properties, the absorption and emission spectra were collected for all final compounds.

T1 sequence (P12295 whole entry): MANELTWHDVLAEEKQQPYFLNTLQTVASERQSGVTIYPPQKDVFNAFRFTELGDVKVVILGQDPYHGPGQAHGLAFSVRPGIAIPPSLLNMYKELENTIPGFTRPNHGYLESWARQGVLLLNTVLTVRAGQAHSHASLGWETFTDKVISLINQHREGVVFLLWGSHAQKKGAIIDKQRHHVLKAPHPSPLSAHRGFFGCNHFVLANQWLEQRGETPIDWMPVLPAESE

In the case of `CCCN1/C(=C/C=C2\CCCC(/C=C/C3=[N+](CCC)c4ccccc4C3(C)C)=C2Oc2ccc(CC(=O)NCCCON)cc2)C(C)(C)c2ccccc21` [Cy7MX, 2-((E)-2-((E)-2-(4-(2-((3-(aminooxy)propyl)amino)-2-oxoethyl)phenoxy)-3-((E)-2-(3,3-dimethyl-1-propylindolin-2-ylidene)ethylidene)cyclohex-1-en-1-yl)vinyl)-3,3-dimethyl-1-propyl-3H-indol-1-ium 2,2,2-trifluoroacetate], at UDG, the UDG inhibition result was “does not inhibit UDG activity”. Also, in data set [1] (in the presence of light, MX solutions), the “stability of Cy7MX with MX” value is recorded as “decompose Cy7MX rapidly”. Further, the “stability of Cy7MX assay samples” value in data set [1] (stored in the dark) is on record as “stable for at least two days”. For the same compound, in the data set on DLD1 WT cells, the “detection of AP sites in DNA of MMS treated cells” value is recorded as “sensitive to the quantity of AP sites induced by mM concentrations of MMS”. Moreover, the “fluorescence intensity versus DNA heat/acid treatment time” value in data set [2] was “linear relationship”. For the same compound, in data set [3], the Stokes shift was 20 nm, the λabs max was determined as 770 nm and the λem max is listed as 796 nm.
